Source: US4472304A, “(Amido)N-substituted bleomycins, salts thereof and process for preparation thereof” (Nippon Kayaku Kabushiki Kaisha, priority 1981, dated 1984)

Experiments:
Bacillus subtilis = experiment: Antimicrobial activity against Bacillus subtilis (agar plate-cylinder); format: cell-based; details: standard bleomycin A2 (copper-free) assumed 1,000 mcg potency/mg
Procedure: (§1) 2. ANT[…] MYC[…] ATCC 607 AND BACILLUS SUBTILIS
(§2) The antimicrobial activity was tested against the captioned test organisms by the method of agar plate-cylinder. The activity was recorded on the assumption that the activity of standard sample of bleomycin A2 (copper-free form) is 1,000 mcg poteney/mg.

pulmonary fibrosis = experiment: Pulmonary toxicity (pulmonary fibrosis) in mice; details: for Incidence: Number of mice with pulmonary fibrosis (%) / Incidence: Number of mice with pulmonary fibrosis / Grade: Total score of pulmonary fibrosis/total number of samples / Grade: Total score of pulmonary fibrosis/total number of samples (%): ICR mice, 5 mg/kg i.p. once a day for 10 days; for Incidence: Number of mice with pulmonary fibrosis (%) / Incidence: Number of mice with pulmonary fibrosis: 5 weeks observation; for Incidence: Number of mice with pulmonary fibrosis: mice with fibrosis/total; for Grade: Total score of pulmonary fibrosis/total number of samples / Grade: Total score of pulmonary fibrosis/total number of samples (%): points 0, 1, 2, 4, 6; for Ratio (by comparison with "Bleomycin Complex"): versus Bleomycin Complex
[1] = tested on: Mycobacterium smegmatis ATCC 607; experiment: Antimicrobial activity against Mycobacterium smegmatis ATCC 607 (agar plate-cylinder); format: cell-based; details: standard bleomycin A2 (copper-free) assumed 1,000 mcg potency/mg
Procedure: as §1, §2

Cc1c(N)nc(C(CC(N)=O)NCC(N)C(=O)NC(C)C)nc1C(=O)NC(C(=O)NC(C)C(O)C(C)C(=O)NC(C(=O)NCCc1nc(-c2nc(C(=O)NCCCNC(C)c3ccccc3)cs2)cs1)C(C)O)C(OC1OC(CO)C(O)C(O)C1OC1OC(CO)C(O)C(OC(N)=O)C1O)c1cnc[nH]1 [Compound 21, 3-((S)-1'-phenylethyl)aminopropylamino-(amido)N--[isopropyl]-BLM]
Antimicrobial potency of Cu-free compound against Bacillus subtilis (Bacillus subtilis): 962 mcg potency/mg
Incidence: Number of mice with pulmonary fibrosis (%) (pulmonary fibrosis): 38%
Incidence: Number of mice with pulmonary fibrosis (pulmonary fibrosis): 3/8
Grade: Total score of pulmonary fibrosis/total number of samples (pulmonary fibrosis): 5/24
Grade: Total score of pulmonary fibrosis/total number of samples (%) (pulmonary fibrosis): 21%
Ratio (by comparison with "Bleomycin Complex") (pulmonary fibrosis): 0.27
Antimicrobial potency of Cu-free compound against Mycobacterium smegmatis ATCC 607 [1]: 11998 mcg potency/mg

Cc1c(N)nc(C(CC(N)=O)NCC(N)C(=O)NCCCNC(C)c2ccccc2)nc1C(=O)NC(C(=O)NC(C)C(O)C(C)C(=O)NC(C(=O)NCCc1nc(-c2nc(C(=O)NCCCNC(C)c3ccccc3)cs2)cs1)C(C)O)C(OC1OC(CO)C(O)C(O)C1OC1OC(CO)C(O)C(OC(N)=O)C1O)c1cnc[nH]1 [Compound 22, 3-((S)-1'-phenylethyl)aminopropylamino-(amido)N--[3-((S)-1'-phenylethyl)aminopropyl]-BLM]
Antimicrobial potency of Cu-free compound against Bacillus subtilis (Bacillus subtilis): 2800 mcg potency/mg
Incidence: Number of mice with pulmonary fibrosis (%) (pulmonary fibrosis): 13%
Incidence: Number of mice with pulmonary fibrosis (pulmonary fibrosis): 1/8
Grade: Total score of pulmonary fibrosis/total number of samples (pulmonary fibrosis): 1/21
Grade: Total score of pulmonary fibrosis/total number of samples (%) (pulmonary fibrosis): 4%
Ratio (by comparison with "Bleomycin Complex") (pulmonary fibrosis): 0.05
Antimicrobial potency of Cu-free compound against Mycobacterium smegmatis ATCC 607 [1]: 28030 mcg potency/mg

Cc1c(N)nc(C(CC(N)=O)NCC(N)C(=O)NCCN2CCNCC2)nc1C(=O)NC(C(=O)NC(C)C(O)C(C)C(=O)NC(C(=O)NCCc1nc(-c2nc(C(=O)NCCCNC(C)c3ccccc3)cs2)cs1)C(C)O)C(OC1OC(CO)C(O)C(O)C1OC1OC(CO)C(O)C(OC(N)=O)C1O)c1cnc[nH]1 [Compound 33, 3-((S)-1'-phenylethylamino)propylamino-(amido)N--[2-(1-piperazinyl)ethyl]-BLM]
Antimicrobial potency of Cu-free compound against Bacillus subtilis (Bacillus subtilis): 5009 mcg potency/mg
Incidence: Number of mice with pulmonary fibrosis (%) (pulmonary fibrosis): 56%
Incidence: Number of mice with pulmonary fibrosis (pulmonary fibrosis): 5/9
Grade: Total score of pulmonary fibrosis/total number of samples (pulmonary fibrosis): 11/27
Grade: Total score of pulmonary fibrosis/total number of samples (%) (pulmonary fibrosis): 41%
Ratio (by comparison with "Bleomycin Complex") (pulmonary fibrosis): 0.44
Antimicrobial potency of Cu-free compound against Mycobacterium smegmatis ATCC 607 [1]: 6359 mcg potency/mg

CCCCN(CCCC)CCCNC(=O)C(N)CNC(CC(N)=O)c1nc(N)c(C)c(C(=O)NC(C(=O)NC(C)C(O)C(C)C(=O)NC(C(=O)NCCc2nc(-c3nc(C(=O)NCCCNC(C)c4ccccc4)cs3)cs2)C(C)O)C(OC2OC(CO)C(O)C(O)C2OC2OC(CO)C(O)C(OC(N)=O)C2O)c2cnc[nH]2)n1 [Compound 34, 3-((S)-1'-phenylethylamino)propylamino-(amido)N--[3-(di-n-butylamino)propyl]-BLM]
Antimicrobial potency of Cu-free compound against Bacillus subtilis (Bacillus subtilis): 2843 mcg potency/mg
Incidence: Number of mice with pulmonary fibrosis (%) (pulmonary fibrosis): 0%
Incidence: Number of mice with pulmonary fibrosis (pulmonary fibrosis): 0/8
Grade: Total score of pulmonary fibrosis/total number of samples (pulmonary fibrosis): 0/24
Grade: Total score of pulmonary fibrosis/total number of samples (%) (pulmonary fibrosis): 0%
Ratio (by comparison with "Bleomycin Complex") (pulmonary fibrosis): 0
Antimicrobial potency of Cu-free compound against Mycobacterium smegmatis ATCC 607 [1]: 26023 mcg potency/mg

CCCCNCCCN(C)CCCNC(=O)c1csc(-c2csc(CCNC(=O)C(NC(=O)C(C)C(O)C(C)NC(=O)C(NC(=O)c3nc(C(CC(N)=O)NCC(N)C(=O)NC(C)C)nc(N)c3C)C(OC3OC(CO)C(O)C(O)C3OC3OC(CO)C(O)C(OC(N)=O)C3O)c3cnc[nH]3)C(C)O)n2)n1 (stereo not shown) [Compound 37, 3-[N--methyl-N--(3-n-butylaminopropyl)amino]propylamino-(amido)N--[isopropyl]-BLM]
Antimicrobial potency of Cu-free compound against Bacillus subtilis (Bacillus subtilis): 20048 mcg potency/mg
Incidence: Number of mice with pulmonary fibrosis (%) (pulmonary fibrosis): 33%
Incidence: Number of mice with pulmonary fibrosis (pulmonary fibrosis): 3/9
Grade: Total score of pulmonary fibrosis/total number of samples (pulmonary fibrosis): 13/27
Grade: Total score of pulmonary fibrosis/total number of samples (%) (pulmonary fibrosis): 48%
Ratio (by comparison with "Bleomycin Complex") (pulmonary fibrosis): 0.46
Antimicrobial potency of Cu-free compound against Mycobacterium smegmatis ATCC 607 [1]: 13210 mcg potency/mg

CCCCNCCCN(C)CCCNC(=O)c1csc(-c2csc(CCNC(=O)C(NC(=O)C(C)C(O)C(C)NC(=O)C(NC(=O)c3nc(C(CC(N)=O)NCC(N)C(=O)NCCCN(C)CCCNCCCC)nc(N)c3C)C(OC3OC(CO)C(O)C(O)C3OC3OC(CO)C(O)C(OC(N)=O)C3O)c3cnc[nH]3)C(C)O)n2)n1 (stereo not shown) [Compound 38, 3-[N--methyl-N--(3-n-butylaminopropyl)amino]propylamino-(amido)N--{3-[N--methyl-N--(3-n-butylaminopropyl)amino]-propyl}-BLM]
Antimicrobial potency of Cu-free compound against Bacillus subtilis (Bacillus subtilis): 6600 mcg potency/mg
Incidence: Number of mice with pulmonary fibrosis (%) (pulmonary fibrosis): 71%
Incidence: Number of mice with pulmonary fibrosis (pulmonary fibrosis): 5/7
Grade: Total score of pulmonary fibrosis/total number of samples (pulmonary fibrosis): 7/21
Grade: Total score of pulmonary fibrosis/total number of samples (%) (pulmonary fibrosis): 33%
Ratio (by comparison with "Bleomycin Complex") (pulmonary fibrosis): 0.32
Antimicrobial potency of Cu-free compound against Mycobacterium smegmatis ATCC 607 [1]: 5100 mcg potency/mg

Cc1c(N)nc(C(CC(N)=O)NCC(N)C(=O)NCCCNC(C)c2ccccc2)nc1C(=O)NC(C(=O)NC(C)C(O)C(C)C(=O)NC(C(=O)NCCc1nc(-c2nc(C(=O)NCCCN(C)CCCNCc3ccc(Cl)cc3)cs2)cs1)C(C)O)C(OC1OC(CO)C(O)C(O)C1OC1OC(CO)C(O)C(OC(N)=O)C1O)c1cnc[nH]1 [Compound 39, 3-{N--methyl-N--[3-(p-chlorobenzyl)aminopropyl]amino}-propylamino-(amino)N--[3-(S)-1'-phenylethyl)aminopropyl]-BLM]
Antimicrobial potency of Cu-free compound against Bacillus subtilis (Bacillus subtilis): 2590 mcg potency/mg
Incidence: Number of mice with pulmonary fibrosis (%) (pulmonary fibrosis): 20%
Incidence: Number of mice with pulmonary fibrosis (pulmonary fibrosis): 2/9
Grade: Total score of pulmonary fibrosis/total number of samples (pulmonary fibrosis): 2/27
Grade: Total score of pulmonary fibrosis/total number of samples (%) (pulmonary fibrosis): 7%
Ratio (by comparison with "Bleomycin Complex") (pulmonary fibrosis): 0.07
Antimicrobial potency of Cu-free compound against Mycobacterium smegmatis ATCC 607 [1]: 14880 mcg potency/mg

Cc1c(N)nc(C(CC(N)=O)NCC(N)C(=O)NCCCNC(C)c2ccccc2)nc1C(=O)NC(C(=O)NC(C)C(O)C(C)C(=O)NC(C(=O)NCCc1nc(-c2nc(C(=O)NCCCN(C)CCCNCCc3ccc(Cl)cc3)cs2)cs1)C(C)O)C(OC1OC(CO)C(O)C(O)C1OC1OC(CO)C(O)C(OC(N)=O)C1O)c1cnc[nH]1 [Compound 43, 3-{N--methyl-N--[3-(2-(p-chlorophenyl)ethyl)aminopropyl]amino}-propylamino-(amido)N--[3-((S)-1'-phenylethyl)aminopropyl]-BLM]
Antimicrobial potency of Cu-free compound against Bacillus subtilis (Bacillus subtilis): 4267 mcg potency/mg
Incidence: Number of mice with pulmonary fibrosis (%) (pulmonary fibrosis): 0%
Incidence: Number of mice with pulmonary fibrosis (pulmonary fibrosis): 0/1
Grade: Total score of pulmonary fibrosis/total number of samples (pulmonary fibrosis): 0/3
Grade: Total score of pulmonary fibrosis/total number of samples (%) (pulmonary fibrosis): 0%
Ratio (by comparison with "Bleomycin Complex") (pulmonary fibrosis): 0
Antimicrobial potency of Cu-free compound against Mycobacterium smegmatis ATCC 607 [1]: 15593 mcg potency/mg

CCCCN(CCCC)CCCNC(=O)C(N)CNC(CC(N)=O)c1nc(N)c(C)c(C(=O)NC(C(=O)NC(C)C(O)C(C)C(=O)NC(C(=O)NCCc2nc(-c3nc(C(=O)NCCCN(C)CCCNCCc4ccc(Cl)cc4)cs3)cs2)C(C)O)C(OC2OC(CO)C(O)C(O)C2OC2OC(CO)C(O)C(OC(N)=O)C2O)c2cnc[nH]2)n1 (stereo not shown) [Compound 46, 3-{N--methyl-N--[3-(2-(p-chlorophenyl)ethyl)aminopropyl]amino}-propylamino-(amido)N--[3-(di-n-butylamino)propyl]-BLM]
Antimicrobial potency of Cu-free compound against Bacillus subtilis (Bacillus subtilis): 3690 mcg potency/mg
Antimicrobial potency of Cu-free compound against Mycobacterium smegmatis ATCC 607 [1]: 31690 mcg potency/mg

CCCCNCCCN(C)CCCNC(=O)C(N)CNC(CC(N)=O)c1nc(N)c(C)c(C(=O)NC(C(=O)NC(C)C(O)C(C)C(=O)NC(C(=O)NCCc2nc(-c3nc(C(=O)NCCC[N+](C)(CCCN(Cc4ccccc4)Cc4ccccc4)Cc4ccccc4)cs3)cs2)C(C)O)C(OC2OC(CO)C(O)C(O)C2OC2OC(CO)C(O)C(OC(N)=O)C2O)c2cnc[nH]2)n1 (stereo not shown) [Compound 50, 3-{N--methyl-N--benzyl-N--[3-(dibenzylamino)propyl]amino}-propylamino-(amido)N--[3-[N--methyl-N--(3-n-butylaminopropyl)]-aminopropyl]-BLM]
Antimicrobial potency of Cu-free compound against Bacillus subtilis (Bacillus subtilis): 376 mcg potency/mg
Antimicrobial potency of Cu-free compound against Mycobacterium smegmatis ATCC 607 [1]: 1417 mcg potency/mg

CCCCN(CCCC)CCCNC(=O)C(N)CNC(CC(N)=O)c1nc(N)c(C)c(C(=O)NC(C(=O)NC(C)C(O)C(C)C(=O)NC(C(=O)NCCc2nc(-c3nc(C(=O)NCCCN(C)CCCNCc4ccc(C#N)cc4)cs3)cs2)C(C)O)C(OC2OC(CO)C(O)C(O)C2OC2OC(CO)C(O)C(OC(N)=O)C2O)c2cnc[nH]2)n1 (stereo not shown) [Compound 61, 3-{N--methyl-N--[3-(p-cyanobenzylamino)propyl]amino}-propylamino-(amido)N--[3-(di-n-butylamino)propyl]-BLM]
Antimicrobial potency of Cu-free compound against Bacillus subtilis (Bacillus subtilis): 4755 mcg potency/mg
Antimicrobial potency of Cu-free compound against Mycobacterium smegmatis ATCC 607 [1]: 14730 mcg potency/mg

Cc1c(N)nc(C(CC(N)=O)NCC(N)C(=O)NCCCNC(C)c2ccccc2)nc1C(=O)NC(C(=O)NC(C)C(O)C(C)C(=O)NC(C(=O)NCCc1nc(-c2nc(C(=O)NCCCN(C)CCCNCc3ccc(C#N)cc3)cs2)cs1)C(C)O)C(OC1OC(CO)C(O)C(O)C1OC1OC(CO)C(O)C(OC(N)=O)C1O)c1cnc[nH]1 [Compound 63, 3-{N--methyl-N--[3-(p-cyanobenzylamino)propyl]amino]propylamino-(amido)N--[(3-((S)-1'-phenylethylamino)propyl]-BLM]
Antimicrobial potency of Cu-free compound against Bacillus subtilis (Bacillus subtilis): 11056 mcg potency/mg
Antimicrobial potency of Cu-free compound against Mycobacterium smegmatis ATCC 607 [1]: 21877 mcg potency/mg
